Experimental data published in PubChem BioAssay AID330 (DTP/NCI, 2004).
Several values for one entry are separate records, joined by “and”; a condition that tells them apart may be missing. Equal values may be shown once. Inconclusive results and toxic doses are left out. How the source made its calls: active means survival T/C of 150% or more; inactive means T/C below 125% in these data.

System: P388 leukemia ip, CD2F1 mice, survival T/C
Experiment: NCI In Vivo Anticancer Drug Screen. Data for tumor model P388 Leukemia (intraperitoneal) in CD2F1 (CDF1) mice
Details: endpoint: median survival time, higher = longer survival
Summary of the method: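 Mice carrying the transplanted tumor received test compound or vehicle. Survival was recorded in each group, and the value is the treated-group measurement divided by that of the vehicle-treated control group.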

[1] = dose: 50.0 mg/kg/injection, schedule: Q01DX005 (ip), vehicle: saline with Tween-80
[2] = dose: 50.0 mg/kg/injection, schedule: Q01DX009 (ip), vehicle: saline with Tween-80
[3] = dose: 100.0 mg/kg/injection, schedule: Q01DX009 (ip), vehicle: saline with Tween-80
[4] = dose: 200.0 mg/kg/injection, schedule: Q01DX009 (ip), vehicle: saline with Tween-80
[5] = dose: 50.0 mg/kg/injection, schedule: Q01DX009 (ip), vehicle: saline
[6] = dose: 100.0 mg/kg/injection, schedule: Q01DX009 (ip), vehicle: saline
[7] = dose: 200.0 mg/kg/injection, schedule: Q01DX009 (ip), vehicle: saline

Measured: T/C

COC(=O)/C(=C(\C)C=O)N1C(=O)C(NC(=O)c2ccccc2)C1SSc1nc2ccccc2s1 (stereo unspecified)
inactive: dose: 100.0 mg/kg/injection, schedule: Q01DX001 (ip), vehicle: Klucel (hydroxypropylcellulose) (HPC) 108 % of control | dose: 200.0 mg/kg/injection, schedule: Q01DX001 (ip), vehicle: Klucel (hydroxypropylcellulose) (HPC) 95 % of control | dose: 400.0 mg/kg/injection, schedule: Q01DX001 (ip), vehicle: Klucel (hydroxypropylcellulose) (HPC) 112 % of control

COC1=CC(=Nc2cc(Br)c(O)c(Br)c2)C=CC1=O
inactive: dose: 6.25 mg/kg/injection, schedule: Q01DX005 (ip), vehicle: saline 105 % of control | dose: 12.5 mg/kg/injection, schedule: Q01DX005 (ip), vehicle: saline 108 % of control | dose: 25.0 mg/kg/injection, schedule: Q01DX005 (ip), vehicle: saline 100 % of control | [1] 95 % of control

COc1ccc2c(c1)NC(O)c1cccn1C2=O (stereo unspecified)
inactive: dose: 0.1 mg/kg/injection, schedule: Q01DX005 (ip), vehicle: water 91 % of control | dose: 0.2 mg/kg/injection, schedule: Q01DX005 (ip), vehicle: water 91 % of control | dose: 0.4 mg/kg/injection, schedule: Q01DX005 (ip), vehicle: water 93 % of control | dose: 0.8 mg/kg/injection, schedule: Q01DX005 (ip), vehicle: water 96 % of control | dose: 1.6 mg/kg/injection, schedule: Q01DX005 (ip), vehicle: water 102 % of control | dose: 5.0 mg/kg/injection, schedule: Q01DX005 (ip), vehicle: distilled water + Tween-80 100 % of control | dose: 10.0 mg/kg/injection, schedule: Q01DX005 (ip), vehicle: distilled water + Tween-80 94 % of control | dose: 20.0 mg/kg/injection, schedule: Q01DX005 (ip), vehicle: distilled water + Tween-80 100 % of control | dose: 40.0 mg/kg/injection, schedule: Q01DX005 (ip), vehicle: distilled water + Tween-80 95 % of control | dose: 80.0 mg/kg/injection, schedule: Q01DX005 (ip), vehicle: distilled water + Tween-80 91 % of control

CCCCOC(=O)[C@@H]1O[C@H]2OC=C[C@H]21
inactive: dose: 6.25 mg/kg/injection, schedule: Q01DX005 (ip), vehicle: saline with Tween-80 100 % of control | dose: 12.5 mg/kg/injection, schedule: Q01DX005 (ip), vehicle: saline with Tween-80 106 % of control

COc1ccc(CSC(=S)Nc2ccc(Cl)c(Cl)c2)cc1
inactive: dose: 12.5 mg/kg/injection, schedule: Q01DX009 (ip), vehicle: Klucel (hydroxypropylcellulose) (HPC) 111 % of control | dose: 25.0 mg/kg/injection, schedule: Q01DX009 (ip), vehicle: Klucel (hydroxypropylcellulose) (HPC) 120 % of control | dose: 50.0 mg/kg/injection, schedule: Q01DX009 (ip), vehicle: Klucel (hydroxypropylcellulose) (HPC) 120 % of control and 121 % of control | dose: 100.0 mg/kg/injection, schedule: Q01DX009 (ip), vehicle: Klucel (hydroxypropylcellulose) (HPC) 111 % of control

COC1=NC2(C)C(C)=C(c3ccccc3)C1(C)c1ccccc12 (stereo unspecified)
inactive: dose: 60.0 mg/kg/injection, schedule: Q01DX005 (ip), vehicle: saline with Tween-80 100 % of control | dose: 120.0 mg/kg/injection, schedule: Q01DX005 (ip), vehicle: saline with Tween-80 98 % of control | dose: 240.0 mg/kg/injection, schedule: Q01DX005 (ip), vehicle: saline with Tween-80 99 % of control

[Cu+2].[O-]c1ccc(Br)c2cccnc12.[O-]c1ccc(Br)c2cccnc12
inactive: dose: 12.5 mg/kg/injection, schedule: Q01DX009 (ip), vehicle: saline with Tween-80 104 % of control | dose: 25.0 mg/kg/injection, schedule: Q01DX009 (ip), vehicle: saline with Tween-80 100 % of control | dose: 33.0 mg/kg/injection, schedule: Q04DX003 (ip), vehicle: saline with Tween-80 90 % of control | [2] 104 % of control

CN/N=C/c1cc(=O)n(C)c(=O)n1C
inactive: [2] 101 % of control | [3] 101 % of control | [4] 99 % of control

C=C1C(=O)OC2CC(C)C3C=CC(=O)C3CC12 (stereo unspecified)
inactive: dose: 0.15 mg/kg/injection, schedule: Q01DX009 (ip), vehicle: Klucel (hydroxypropylcellulose) (HPC) 98 % of control | dose: 0.3 mg/kg/injection, schedule: Q01DX009 (ip), vehicle: Klucel (hydroxypropylcellulose) (HPC) 100 % of control | dose: 0.6 mg/kg/injection, schedule: Q01DX009 (ip), vehicle: Klucel (hydroxypropylcellulose) (HPC) 99 % of control and 103 % of control | dose: 2.34 mg/kg/injection, schedule: Q01DX009 (ip), vehicle: Klucel (hydroxypropylcellulose) (HPC) 102 % of control | dose: 2.4 mg/kg/injection, schedule: Q01DX009 (ip), vehicle: Klucel (hydroxypropylcellulose) (HPC) 104 % of control

CCC1(CCC(C)C)C(=O)N(CCCl)C(=O)N(CCCl)C1=O
inactive: [2] 100 % of control | [3] 105 % of control | [4] 96 % of control

O=C(NCCCC1NC(=O)/C(=C(O)/C=C/C2CCCCC2)C1=O)OCc1ccccc1 (stereo unspecified)
inactive: [1] 100 % of control | dose: 100.0 mg/kg/injection, schedule: Q01DX005 (ip), vehicle: saline with Tween-80 95 % of control | dose: 200.0 mg/kg/injection, schedule: Q01DX005 (ip), vehicle: saline with Tween-80 100 % of control

CCOc1ccc2nc(N=NC(C(C)=O)C(C)=O)sc2c1
inactive: [5] 90 % of control | [6] 92 % of control | [7] 92 % of control

O=C1N/C(=C\c2nc3ccccc3s2)c2ccccc21
inactive: [2] 96 % of control | [3] 90 % of control | [4] 89 % of control

COCCC(=NC(C)(C)C)Nc1ccccc1Cl
inactive: [5] 114 % of control | [6] 113 % of control | [7] 102 % of control

Cn1c(/C=C/CO)c(CO)c2c1C(=O)C=C(N1CC1)C2=O
inactive: dose: 1.5 mg/kg/injection, schedule: Q01DX005 (ip), vehicle: saline 106 % of control | dose: 3.0 mg/kg/injection, schedule: Q01DX005 (ip), vehicle: saline 94 % of control

Cc1ccc(N2CCN(CC(O)COc3cc4c(c5c3CCCC5)CCCC4)CC2)cc1C (stereo unspecified)
inactive: dose: 100.0 mg/kg/injection, schedule: Q04DX003 (ip), vehicle: Klucel (hydroxypropylcellulose) (HPC) 95 % of control | dose: 200.0 mg/kg/injection, schedule: Q04DX003 (ip), vehicle: Klucel (hydroxypropylcellulose) (HPC) 93 % of control | dose: 400.0 mg/kg/injection, schedule: Q04DX003 (ip), vehicle: Klucel (hydroxypropylcellulose) (HPC) 91 % of control

CCCCCc1cc(O)c2c(c1)OC(C)(C)c1ccc(C)cc1-2
inactive: dose: 64.0 mg/kg/injection, schedule: Q01DX009 (ip), vehicle: saline 115 % of control | dose: 128.0 mg/kg/injection, schedule: Q01DX009 (ip), vehicle: saline 97 % of control | dose: 256.0 mg/kg/injection, schedule: Q01DX009 (ip), vehicle: saline 109 % of control | dose: 512.0 mg/kg/injection, schedule: Q01DX009 (ip), vehicle: saline 106 % of control

O=C1CC2OCC=C3CN4CCC56c7ccccc7N1C5C2C3CC46 (stereo unspecified) (tested in a mixture with another compound)
inactive: dose: 0.38 mg/kg/injection, schedule: Q01DX009 (ip), vehicle: saline + alcohol 100 % of control | dose: 0.75 mg/kg/injection, schedule: Q01DX009 (ip), vehicle: saline + alcohol 109 % of control | dose: 1.5 mg/kg/injection, schedule: Q01DX009 (ip), vehicle: saline + alcohol 95 % of control

CSC(=S)n1nc(C)c(N=Nc2ccc(Br)cc2)c1C
inactive: dose: 100.0 mg/kg/injection, schedule: Q04DX002 (ip), vehicle: Klucel (hydroxypropylcellulose) (HPC) 107 % of control | dose: 200.0 mg/kg/injection, schedule: Q04DX002 (ip), vehicle: Klucel (hydroxypropylcellulose) (HPC) 103 % of control | dose: 400.0 mg/kg/injection, schedule: Q04DX002 (ip), vehicle: Klucel (hydroxypropylcellulose) (HPC) 103 % of control

Cc1nc2c([N+](=O)[O-])c(N3CCOCC3)c([N+](=O)[O-])cc2[nH]1
inactive: dose: 100.0 mg/kg/injection, schedule: Q04DX003 (ip), vehicle: saline with Tween-80 98 % of control | dose: 200.0 mg/kg/injection, schedule: Q04DX003 (ip), vehicle: saline with Tween-80 103 % of control | dose: 400.0 mg/kg/injection, schedule: Q04DX003 (ip), vehicle: saline with Tween-80 101 % of control

CC(=O)N1C=[N+](C)C(C)(C)C1
inactive: dose: 100.0 mg/kg/injection, schedule: Q04DX003 (ip), vehicle: saline 103 % of control | dose: 200.0 mg/kg/injection, schedule: Q04DX003 (ip), vehicle: saline 90 % of control

CCCCCOC(=O)C1=CCN2CCCC12C (stereo unspecified)
inactive: dose: 25.0 mg/kg/injection, schedule: Q01DX001 (ip), vehicle: saline with Tween-80 97 % of control | dose: 50.0 mg/kg/injection, schedule: Q01DX001 (ip), vehicle: saline with Tween-80 105 % of control | dose: 100.0 mg/kg/injection, schedule: Q01DX001 (ip), vehicle: saline with Tween-80 97 % of control
